In experiment [1] the test system is sporadic PD patient fibroblasts. Description: Mitochondrial membrane potential (MMP, TMRM) in sporadic PD patient fibroblasts. The class given is cell-based, human. The following applies: 24 h, 3 sporadic PD patient fibroblasts; for EC50: 8-point range 0.06 nM-300 nM; for Emax: max response with highest dose of compound (300 nM), read-out: MMP % of vehicle, top %; for activity at 60 pM: max response with lowest dose of compound (0.06 nM), read-out: MMP % of vehicle, bottom %. On the procedure:
(§1) Primary fibroblast cells were cultured continuously in Glucose based medium (high glucose (4500 mg/L) Dulbecco's Modified Eagle's medium (DMEM; Sigma-Aldrich) supplemented with 10% fetal bovine serum (Sigma-Aldrich), 100 IU/mL penicillin, 100 μg/mL streptomycin (Lonza), 1 mM sodium pyruvate (Sigma-Aldrich) and 50 μg/mL uridine (Sigma-Aldrich)). Unless otherwise stated, 24 hours prior to analysis, the Glucose based medium was exchanged for Galactose based medium (glucose-free DMEM (Gibco) with the same supplementation and in addition, 5 mM galactose (Sigma-Aldrich)). All cells were assessed between passage 6-10.
Fibroblasts were cultured and plated into a greiner black 384 μClear® plate at a concentration of 1000 cells per well in 50 μl of media volume. The plates are left overnight in an incubator to allow the fibroblasts to adhere to the plate surface. The following morning the Glucose based medium is replaced with 25 μl of Galactose based medium. The plates were then dosed with the compounds using an ECHO® 550 liquid handling system. The wells were dosed to provide an 8-point concentration range of 0.06 nM-300 nM of compound. After dosing the wells are topped up with a further 25 μl of Galactose based medium and then left in an incubator for 24 hours. After 24 hours, the medium is removed from the wells and replaced with 25 μl phenol free Minimal essential medium supplemented with 10% FBS, 1% Penicillin-streptomycin, 1% sodium pyruvate, 0.1% uridine, 1% non-essential amino acids and 1% MEM vitamins with 80 nM TMRM (Sigma) and 10 μM Hoechst Stain (Sigma). The plate is returned to the incubator for another hour after which the stain medium is removed and replaced with 25 μl Phenol free MEM. The plate is then imaged using an IN Cell high content microscope (GE Healthcare) with fields of view per well in 2 channels, Cy3 excitation 542 nm, emission 604-64 nm; and the DAPI excitation 350 nm, emission 450-55 nm at 37° C. with CO2. After imaging the plate is disposed of and the images are Data mined using the INCell developer Toolkit (GE Healthcare).
After the assays had been repeated in triplicate per line and compound the data was then inputted into Graph pad Prism 7 software suite where a dose response curve is generated using the default “[Agonist] vs response(three parameters)” equation. […]

The test system is the same in experiment [2]. Description: Cellular ATP levels in sporadic PD patient fibroblasts, full ATP assay. The conditions noted are these: 24 h, 3 sporadic PD patient fibroblasts; for EC50: 8-point range 0.06 nM-300 nM; for Emax at 0.3 µM: max response with highest dose of compound (300 nM), read-out: ATP % of vehicle, top %; for activity at 60 pM: max response with lowest dose of compound (0.06 nM), read-out: ATP % of vehicle, bottom %. It is filed as cell-based, human. On the procedure:
as §1
The ATP protocol is generally as described in Mortiboys et al 2008. Briefly, fibroblasts were cultured as and plated into white 384 well plates at a concentration of 5000 cells per well in 50 μl of media volume. The plates are left overnight in an incubator to allow the fibroblasts to adhere to the plate surface. The following morning the Glucose based medium is replaced with 25 μl of Galactose based medium. The plates were then spiked with the compounds using a ECHO 550 liquid handling system. The wells were dosed to provide an 8-point concentration range of 0.06 nM-300 nM of compound. After dosing the wells are topped up with a further 25 μl of Galactose based medium and then left in an incubator for 24 hours. Following this incubation, the medium is removed from the plate and the wells are washed twice with sterile PBS. The wells are filled with 25 μl of Sterile PBS followed by 12.5 μl of Lysis solution from the ATPlite™ Luminescence ATP detection assay system (Perkin Elmer), including 16 cell free wells to use as blank controls. The plate is then placed on a rotary shaker for 5 mins at 700 rpm. Following the shaking 12.5 μl of ATP substrate solution (Perkin Elmer) is added to each well and a further 5 min of shaking. The plate is then placed in darkness for 10 minutes prior to reading. Using a PHERAStar® plate reader, luminescence intensity is recorded. Following the ATP assay the plates are immediately assayed for DNA content in a CyQUANT® assay.
Immediately following The ATP assay DNA content is assessed with the CyQUANT® NF Cell Proliferation Assay Kit (ThermoFisher). CyQUANT® buffer is prepared immediately before the assay and is comprised of 1 μl CyQUANT® dye per ml×1 HBSS solution. 12.5 μl of CyQUANT® buffer is added to each well. Plate left in incubator for 1 hour then read on a PHERAStar© Plate reader with excitation at 497 nm and emission at 520 nm.
ATP Quantification for each well is determined using the following formula: […]
After the assays had been repeated in triplicate per line and compound the data was then inputted into Graph pad Prism 7 software suite where a dose response curve is generated using the default “[Agonist] vs response(three parameters)” equation.
From this EC50 values, lowest response and maximal response were taken and used to calculate the Geometric mean between the 5 different lines assessed.

Where a name gives a salt, the structure may show the parent alone.

Broadly, the EC50 is the concentration giving half of the maximal effect. Read a low EC50 as an effect from little substance.

`CC[C@H](C)[C@H](N)C(=O)N1CC[C@@]2(C)[C@H](C[C@H](O)[C@@H]3[C@@H]2CC[C@]2(C)[C@@H]([C@H](C)CCCC(=O)O)CC[C@@H]32)C1` [Compound 42b, N-[(2S,3S)-2-Amino-3-methylpentanoyl]-3-aza-7β-hydroxy-25-homo-5β-cholan-25-oic acid hydrotrifluoroacetate]: in experiment [1] (Homo sapiens, Fibroblast), it took 5.1 nM to reach a half-maximal effect (EC50), the Emax came out at 96.6% and the activity at 60 pM turned out to be 92.2%. Moreover, in experiment [2] (Homo sapiens, Fibroblast), the EC50 came out at 25.4 nM, the Emax at 0.3 µM came out at 98.5% and the activity at 60 pM is 91.3%.

For `C[C@H](CCCC(=O)O)[C@H]1CC[C@H]2[C@@H]3[C@@H](O)C[C@@H]4CN(C)CC[C@]4(C)[C@H]3CC[C@]12C` [Compound 31b, N-Methyl-3-aza-7β-hydroxy-25-homo-5β-cholan-25-oic acid hydrotrifluoroacetate], in experiment [1] (Homo sapiens, Fibroblast), a half-maximal effect (EC50) was put at 6.1 nM, the Emax turned out to be 95.1% and the activity at 60 pM was 86.5%. Further, in experiment [2] (Homo sapiens, Fibroblast), the EC50 worked out at 0.266 nM, the Emax at 0.3 µM worked out at 161% and the activity at 60 pM came to 91.7%.

As for `CC(C)C[C@H](N)C(=O)N1CC[C@@]2(C)[C@H](C[C@H](O)[C@@H]3[C@@H]2CC[C@]2(C)[C@@H]([C@H](C)CCCC(=O)O)CC[C@@H]32)C1` [Compound 43b, N-[(2S)-2-Amino-4-methylpentanoyl]-3-aza-7β-hydroxy-25-homo-5β-cholan-25-oic acid hydrotrifluoroacetate], in experiment [1] (Homo sapiens, Fibroblast), the EC50 was determined as 1.1 nM, the Emax worked out at 103% and the activity at 60 pM was determined as 86.9%. Besides, in experiment [2] (Homo sapiens, Fibroblast), the Emax at 0.3 µM was found to be 80.6%.

As for `C[C@H](CCC(=O)O)[C@H]1CC[C@H]2[C@@H]3[C@@H](O)C[C@@H]4CN(C(=O)CO)CC[C@]4(C)[C@H]3CC[C@]12C` [Compound 40a, N-Glycolyl-3-aza-7β-hydroxy-5β-cholan-24-oic acid], in experiment [1] (Homo sapiens, Fibroblast), the EC50 is 65.3 nM, the Emax turned out to be 106% and the activity at 60 pM came out at 93.5%. In addition, in experiment [2] (Homo sapiens, Fibroblast), the EC50 worked out at 22.8 nM, the Emax at 0.3 µM stood at 103% and the activity at 60 pM is 89.9%.

On to `C[C@H](CCCC(=O)O)[C@H]1CC[C@H]2[C@@H]3[C@@H](O)C[C@@H]4CN(C(=O)[C@@H](N)Cc5c[nH]c6ccccc56)CC[C@]4(C)[C@H]3CC[C@]12C` [Compound 44b, N-[(2S)-2-Amino-3-(1H-indol-3-yl)propanoyl]-3-aza-7β-hydroxy-25-homo-5β-cholan-25-oic acid hydrotrifluoroacetate], for which, in experiment [1] (Homo sapiens, Fibroblast), the concentration for a half-maximal effect (EC50) was determined as 0.11 nM, the Emax came to 98.8% and the activity at 60 pM turned out to be 77.8%. In addition, the Emax at 0.3 µM in experiment [2] (Homo sapiens, Fibroblast) is 98.4%.

Take `C[C@H](CCC(=O)O)[C@H]1CC[C@H]2[C@@H]3[C@@H](O)C[C@@H]4CN(C(=O)[C@@H](N)Cc5c[nH]c6ccccc56)CC[C@]4(C)[C@H]3CC[C@]12C` [Compound 44a, N-[(2S)-2-Amino-3-(1H-indol-3-yl)propanoyl]-3-aza-7β-hydroxy-5β-cholan-24-oic acid hydrotrifluoroacetate]: in experiment [1] (Homo sapiens, Fibroblast), the EC50 stood at 0.09 nM, the Emax amounted to 102% and the activity at 60 pM turned out to be 73.5%. In addition, in experiment [2] (Homo sapiens, Fibroblast), the EC50 was 0.23 nM, the Emax at 0.3 µM amounted to 122% and the activity at 60 pM was 65.1%.

For the molecule `C[C@H](CCC(=O)O)[C@H]1CC[C@H]2[C@@H]3[C@@H](O)C[C@@H]4CN(C(=O)[C@@H](N)Cc5ccc(O)cc5)CC[C@]4(C)[C@H]3CC[C@]12C` [Compound 45a, N-[(2S)-2-Amino-3-(4-hydroxyphenyl)propanoyl]-3-aza-7β-hydroxy-5β-cholan-24-oic acid hydrotrifluoroacetate], in experiment [1] (Homo sapiens, Fibroblast), the response was half-maximal at 0.18 nM (EC50), the Emax came out at 95.1% and the activity at 60 pM amounted to 82.3%. Besides, in experiment [2] (Homo sapiens, Fibroblast), a half-maximal response (EC50) required 0.25 nM, the Emax at 0.3 µM is 97.2% and the activity at 60 pM came to 83.8%.

For the molecule `C[C@H](CCC(=O)O)[C@H]1CC[C@H]2[C@@H]3[C@@H](O)C[C@@H]4CN(C)CC[C@]4(C)[C@H]3CC[C@]12C` [Compound 33, N-Methyl-3-aza-7β-hydroxy-5β-cholan-24-oic acid hydrochloride], the EC50 in experiment [1] (hydrochloride) stood at 18.3 nM; in experiment [2] (hydrochloride), 0.75 nM. The activity at 60 pM is 82.3% in experiment [1] (Homo sapiens, Fibroblast) and 88.8% in experiment [2] (Homo sapiens, Fibroblast).

`CC(C)[C@H](N)C(=O)N1CC[C@@]2(C)[C@H](C[C@H](O)[C@@H]3[C@@H]2CC[C@]2(C)[C@@H]([C@H](C)CCCC(=O)O)CC[C@@H]32)C1` [Compound 41b, N-[(2S)-2-Amino-3-methylbutanoyl]-3-aza-7β-hydroxy-25-homo-5β-cholan-25-oic acid hydrotrifluoroacetate]: the activity at 60 pM in experiment [1] (Homo sapiens, Fibroblast) amounted to 84.6%; in experiment [2] (Homo sapiens, Fibroblast) it was 78.9%.

For the molecule `CC[C@H](C)[C@H](N)C(=O)N1CC[C@@]2(C)[C@H](C[C@H](O)[C@@H]3[C@@H]2CC[C@]2(C)[C@@H]([C@H](C)CCC(=O)O)CC[C@@H]32)C1` [Compound 42a, N-[(2S,3S)-2-Amino-3-methylpentanoyl]-3-aza-7β-hydroxy-5β-cholan-24-oic acid hydrotrifluoroacetate], in experiment [1] (Homo sapiens, Fibroblast), the EC50 stood at 130 nM, the Emax is 69.2% and the activity at 60 pM was 71.3%. In experiment [2] (Homo sapiens, Fibroblast), a half-maximal effect (EC50) was put at 134 nM, the Emax at 0.3 µM came out at 64.5% and the activity at 60 pM stood at 89.6%.

In the case of `CC(C)C[C@H](N)C(=O)N1CC[C@@]2(C)[C@H](C[C@H](O)[C@@H]3[C@@H]2CC[C@]2(C)[C@@H]([C@H](C)CCC(=O)O)CC[C@@H]32)C1` [Compound 43a, N-[(2S)-2-Amino-4-methylpentanoyl]-3-aza-7β-hydroxy-5β-cholan-24-oic acid hydrotrifluoroacetate], in experiment [1] (Homo sapiens, Fibroblast), the 50% effective concentration (EC50) was determined as 0.2 nM, the Emax amounted to 100% and the activity at 60 pM was determined as 84.1%. Further, in experiment [2] (Homo sapiens, Fibroblast), the EC50 is 8.9 nM, the Emax at 0.3 µM was 86% and the activity at 60 pM was found to be 90.2%.

For the molecule `C[C@H](CCCC(=O)O)[C@H]1CC[C@H]2[C@@H]3[C@@H](O)C[C@@H]4CN(C(=O)CO)CC[C@]4(C)[C@H]3CC[C@]12C` [Compound 40b, N-Glycolyl-3-aza-7β-hydroxy-25-homo-5β-cholan-25-oic acid], in experiment [1] (Homo sapiens, Fibroblast), a half-maximal response (EC50) required 26.1 nM, the Emax is 131% and the activity at 60 pM was 95.3%. In experiment [2] (Homo sapiens, Fibroblast), the EC50 was found to be 19.5 nM, the Emax at 0.3 µM amounted to 130% and the activity at 60 pM amounted to 101%.

These data come from US20250320246A1, “3-AZASTEROID COMPOUNDS FOR THE TREATMENT OF DISEASES RELATED TO MITROCHONDRIAL FUNCTION” (NZP UK LIMITED, priority 2022, published 2025).
